Experimental data: patent publication US20200024278A1, “COMPOSITION COMPRISING ANTIBIOTIC COMPOUND AND AN HETEROCYCLIC COMPOUND AND THEIR USE IN PREVENTING OR TREATING BACTERIAL INFECTIONS” (MUTABILIS, priority 2016, published 2020)
Read-outs that look alike come from different tables or passages of the source.

How the values were obtained:
Assay in all cases: MIC, broth microdilution (CLSI), substance alone or ATB combined with compound at 4 or 8 μg/mL
ECO 190317 = format: cell-based, E. coli; conditions: ECO 190317; for MIC: Escherichia coli
Summary of the method: (§1)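 CLSI broth microdilution in cation-adjusted Mueller-Hinton broth, 5·10^5 CFU/mL log-phase inoculum, 16-20 h at 35 °C in ambient air. Fosfomycin assays supplemented with 25 μg/ml glucose-6-phosphate.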

ECO UFR39 = format: cell-based, E. coli; conditions: ECO UFR39
Summary of the method: as §1

KPN 6299 = format: cell-based, K. pneumoniae; conditions: for MIC: Klebsiella pneumoniae
Summary of the method: as §1

KPN BAA-1898 = format: cell-based, K. pneumoniae; conditions: KPN BAA-1898; for MIC: Klebsiella pneumoniae, BAA1898
Summary of the method: as §1

KPN UFR42 = format: cell-based, K. pneumoniae; conditions: KPN UFR42
Summary of the method: as §1

ECL P99 = format: cell-based, E. cloacae; conditions: ECL P99
Summary of the method: as §1

[1] = antibiotic alone, read-out: MIC ATB alone

COCC1=C(C(=O)O)N2C(=O)[C@@H](NC(=O)/C(=N\OC)c3csc(N)n3)[C@H]2SC1 [POD, Cefpodoxime, reference compound]
MIC ATB combined with Example 1 @8 μg/ml (ECO 190317; with Example 1 at 8 μg/ml): <0.031 µg/mL | MIC ATB combined with Example 7 @8 μgml (ECO 190317; with Example 7 at 8 μg/ml): <0.031 µg/mL | MIC ATB combined with Example 9 @4 μg/ml (ECO 190317; with Example 9 at 4 μg/ml): <0.031 µg/mL | MIC ATB combined with Example 11 @8 μg/ml (ECO 190317; with Example 11 at 8 μg/ml): <0.031 µg/mL | MIC ATB combined with Example 12 @8 μg/ml (ECO 190317; with Example 12 at 8 μg/ml): <0.031 µg/mL | MIC ATB combined with Example 13 @8 μg/ml (ECO 190317; with Example 13 at 8 μg/ml): <0.031 µg/mL | MIC ATB combined with Example 14 @8 μg/ml (ECO 190317; with Example 14 at 8 μg/ml): <0.031 µg/mL | MIC ATB combined with Example 15 @4 μgml (ECO 190317; with Example 15 at 4 μg/ml): <0.031 µg/mL | MIC ATB combined with Example 16 @4 μg/ml (ECO 190317; with Example 16 at 4 μg/ml): <0.031 µg/mL | MIC (ECO 190317; [1]): > 512 µg/mL | MIC (ECO 190317; substance alone, read-out: MIC): > 512 µg/mL | MIC ATB combined with Example 1 @8 μg/ml (ECO UFR39; with Example 1 at 8 μg/ml): <0.031 µg/mL | MIC ATB combined with Example 7 @8 μgml (ECO UFR39; with Example 7 at 8 μg/ml): <0.031 µg/mL | MIC ATB combined with Example 9 @4 μg/ml (ECO UFR39; with Example 9 at 4 μg/ml): <0.031 µg/mL | MIC ATB combined with Example 11 @8 μg/ml (ECO UFR39; with Example 11 at 8 μg/ml): <0.031 µg/mL | MIC ATB combined with Example 12 @8 μg/ml (ECO UFR39; with Example 12 at 8 μg/ml): <0.031 µg/mL | MIC ATB combined with Example 13 @8 μg/ml (ECO UFR39; with Example 13 at 8 μg/ml): <0.031 µg/mL | MIC ATB combined with Example 14 @8 μg/ml (ECO UFR39; with Example 14 at 8 μg/ml): <0.031 µg/mL | MIC ATB combined with Example 15 @4 μgml (ECO UFR39; with Example 15 at 4 μg/ml): <0.031 µg/mL | MIC ATB combined with Example 16 @4 μg/ml (ECO UFR39; with Example 16 at 4 μg/ml): <0.031 µg/mL | MIC (ECO UFR39; Escherichia coli, antibiotic alone, read-out: MIC ATB alone): > 256 µg/mL | MIC (KPN 6299; [1]): 64 µg/mL | MIC (KPN 6299; substance alone, read-out: MIC): 64 µg/mL | MIC ATB combined with Example 1 @8 μg/ml (KPN 6299; with Example 1 at 8 μg/ml): 0.25 µg/mL | MIC ATB combined with Example 7 @8 μgml (KPN 6299; with Example 7 at 8 μg/ml): 0.25 µg/mL | MIC ATB combined with Example 9 @4 μg/ml (KPN 6299; with Example 9 at 4 μg/ml): <0.031 µg/mL | MIC ATB combined with Example 11 @8 μg/ml (KPN 6299; with Example 11 at 8 μg/ml): <0.031 µg/mL | MIC ATB combined with Example 12 @8 μg/ml (KPN 6299; with Example 12 at 8 μg/ml): <0.031 µg/mL | MIC ATB combined with Example 13 @8 μg/ml (KPN 6299; with Example 13 at 8 μg/ml): 0.125 µg/mL | MIC ATB combined with Example 14 @8 μg/ml (KPN 6299; with Example 14 at 8 μg/ml): <0.031 µg/mL | MIC ATB combined with Example 15 @4 μgml (KPN 6299; with Example 15 at 4 μg/ml): <0.031 µg/mL | MIC ATB combined with Example 16 @4 μg/ml (KPN 6299; with Example 16 at 4 μg/ml): <0.031 µg/mL | MIC ATB combined with Example 1 @8 μg/ml (KPN BAA-1898; with Example 1 at 8 μg/ml): 1 µg/mL | MIC ATB combined with Example 7 @8 μgml (KPN BAA-1898; with Example 7 at 8 μg/ml): 2 µg/mL | MIC ATB combined with Example 9 @4 μg/ml (KPN BAA-1898; with Example 9 at 4 μg/ml): <0.031 µg/mL | MIC ATB combined with Example 11 @8 μg/ml (KPN BAA-1898; with Example 11 at 8 μg/ml): <0.031 µg/mL | MIC ATB combined with Example 12 @8 μg/ml (KPN BAA-1898; with Example 12 at 8 μg/ml): <0.031 µg/mL | MIC ATB combined with Example 13 @8 μg/ml (KPN BAA-1898; with Example 13 at 8 μg/ml): 1 µg/mL | MIC ATB combined with Example 14 @8 μg/ml (KPN BAA-1898; with Example 14 at 8 μg/ml): <0.031 µg/mL | MIC ATB combined with Example 15 @4 μgml (KPN BAA-1898; with Example 15 at 4 μg/ml): <0.031 µg/mL | MIC ATB combined with Example 16 @4 μg/ml (KPN BAA-1898; with Example 16 at 4 μg/ml): <0.031 µg/mL | MIC (KPN BAA-1898; [1]): > 512 µg/mL | MIC (KPN BAA-1898; substance alone, read-out: MIC): > 512 µg/mL | MIC ATB combined with Example 1 @8 μg/ml (KPN UFR42; with Example 1 at 8 μg/ml): >32 µg/mL | MIC ATB combined with Example 7 @8 μgml (KPN UFR42; with Example 7 at 8 μg/ml): >32 µg/mL | MIC ATB combined with Example 9 @4 μg/ml (KPN UFR42; with Example 9 at 4 μg/ml): >32 µg/mL | MIC ATB combined with Example 11 @8 μg/ml (KPN UFR42; with Example 11 at 8 μg/ml): <0.031 µg/mL | MIC ATB combined with Example 12 @8 μg/ml (KPN UFR42; with Example 12 at 8 μg/ml): <0.031 µg/mL | MIC ATB combined with Example 13 @8 μg/ml (KPN UFR42; with Example 13 at 8 μg/ml): >32 µg/mL | MIC ATB combined with Example 14 @8 μg/ml (KPN UFR42; with Example 14 at 8 μg/ml): <0.031 µg/mL | MIC ATB combined with Example 15 @4 μgml (KPN UFR42; with Example 15 at 4 μg/ml): <0.031 µg/mL | MIC ATB combined with Example 16 @4 μg/ml (KPN UFR42; with Example 16 at 4 μg/ml): <0.031 µg/mL | MIC (KPN UFR42; Klebsiella pneumoniae, antibiotic alone, read-out: MIC ATB alone): > 256 µg/mL | MIC ATB combined with Example 1 @8 μg/ml (ECL P99; with Example 1 at 8 μg/ml): <=0.031 μg/mL | MIC ATB combined with Example 7 @8 μgml (ECL P99; with Example 7 at 8 μg/ml): 16 µg/mL | MIC ATB combined with Example 9 @4 μg/ml (ECL P99; with Example 9 at 4 μg/ml): <0.031 µg/mL
